The text below walks through data of PMC4749642, “Evaluation of anticonvulsant and antinociceptive properties of new N-Mannich bases derived from pyrrolidine-2,5-dione and 3-methylpyrrolidine-2,5-dione” (Naunyn-Schmiedeberg's Archives of Pharmacology, 2015).

Where “and” joins values, the source holds several entries; their conditions need not be identical. Equal entries are not always repeated. Where two headings read alike, the source gives them in different places. Marks after values point to notes of the source that are not given here.

The test system of data set [1] is mice. In words: Electroconvulsive threshold test (MEST test). Particulars: 4 h before the test; for CS50 (mA) (CI): value with 95 % confidence interval. It counts as in vivo, mouse.
In data set [2] the test system is mice. The experiment in a line: Pilocarpine-induced seizure test. In kind it is in vivo, mouse. To be noted: for Latency to status epilepticus (s) ± SEM: 4 h before pilocarpine 400 mg/kg; for Anticonvulsant effect (%) (prolongation of latency time to seizures vs vehicle): 4 h before pilocarpine, 100 mg/kg. Here is the method: (§1) Male CD-1 mice weighing 18–24 g were used in the in vivo experiment. The animals were kept at room temperature of 20 ± 2 °C under standard conditions (12:12 h light-dark cycle, standard pellet diet, tap water). All the experiments were performed between 8 a.m. and 3 p.m. For the experiments, the animals were selected in a random way and sacrificed by cervical dislocation immediately after the assay. The experimental protocol was approved by the Local Ethics Commission for Animal Experiments of the Jagiellonian University in Cracow, and all experiences were conducted in accordance with the 1996 NIH Guide for the Care and Use of Laboratory Animals.
(§2) The tested compounds 12 (N-[{4-(3,4-dichlorophenyl)-piperazin-1-yl}-methyl]-3-methylpyrrolidine-2,5-dione), 13 (N-[{4-(3-trifluoromethylphenyl)-piperazin-1-yl}-methyl]-3-methylpyrrolidine-2,5-dione), 15 (N-[{4-(3-methylphenyl)-piperazin-1-yl}-methyl]-3-methylpyrrolidine-2,5-dione), 23 (N-[{4-(3,4-dichlorophenyl)-piperazin-1-yl}-methyl]-pyrrolidine-2,5-dione), and 24 (N-[{4-(3-trifluoromethylphenyl)-piperazin-1-yl}-methyl]-pyrrolidine-2,5-dione) were synthesized at the Department of Medicinal Chemistry, Jagiellonian University Medical College in Cracow (Scheme 1). The synthesis of the investigated compounds was described earlier (Rybka et al. [2014]). The investigated compounds were suspended in a 0.5 % aqueous solution of methylcellulose (Loba Chemie, Germany). Lacosamide (Vimpat, UCB Pharma, Belgium), pilocarpine (Sigma-Aldrich, Germany), scopolamine butylbromide (Sigma-Aldrich, Germany), and formaldehyde (POCh, Poland) were dissolved in distilled water. Agents were administered intraperitoneally (i.p.) at a volume of 0.1 ml/10 g. Control animals were administered an equivalent volume of vehicle (0.5 % aqueous solution of methylcellulose) via the same route as the test compounds.
The experimental procedure was originally described by Turski et al. ([1987]). Seizures were induced in mice by i.p. injection of pilocarpine at a dose of 400 mg/kg. Forty-five minutes before pilocarpine, animals were also pretreated with scopolamine butylbromide (1 mg/kg, i.p.) to reduce peripheral autonomic side effects and masticatory and stereotyped movements (Kowalczyk et al. [2014]). Direct observation was performed for 60 min to monitor the latency time to the onset of the limbic seizures, characterized by a subsequent development of behavioral symptoms, such as tremor, head bobbing, and myoclonic movements of the forelimbs progressing to recurrent myoclonic convulsions with rearing, salivation, falling, and status epilepticus (Łuszczki et al. [2008]; Turski [2000]).

Data set [3] deals with mice. In words: Hot plate test. It counts as in vivo, mouse. Particulars: dose 30 mg/kg i.p. Here is the method: as §1, §2
In the hot plate test, the mice were i.p. pretreated either with the test compound or vehicle before placing the animal on the hot plate apparatus (Panlab/Harvard Apparatus, Spain). This apparatus has an electrically heated surface and is supplied with a temperature controller that maintains the temperature at 55–56 °C. The time to the first reaction (licking or jumping) of mice to a nociceptive stimulus was recorded. The cutoff time was established to 60 s to avoid paw tissue damage (Sałat et al. [2014]).

The test system of data set [4] is mice. In words: Formalin hind paw test. In kind it is in vivo, mouse. To be noted: dose 30 mg/kg i.p.; for antinociceptive effect (reduction of licking response), second (late) phase: 15–30 min after 5 % formalin. The method, then:
as §1, §2
Antinociceptive activity in the formalin hind paw test was examined according to Laughlin et al. ([2002]). Twenty microliters of a 5 % formalin solution was injected intraplantarly (i.pl.) into the right hind paw of the mouse. […] Time (in seconds) spent on licking or biting the injected hind paw in selected intervals, 0–5 and 15–30 min, was measured in each experimental group and was an indicator of nociceptive behavior. In mice, intraplantarly injection of diluted formalin produces a biphasic nocifensive behavioral response (i.e., licking or biting the injected hind paw). The acute nociceptive phase lasts for the first 5 min, whereas the second inflammatory phase occurs between 15 and 30 min after formalin injection.

Data set [5] concerns mice. In words: Spontaneous locomotor activity (photoresistor actometers). It counts as in vivo, mouse. Particulars: dose 30 mg/kg i.p.; 30-min session. Here is the method:
as §1, §2
Locomotor activity was measured with photoresistor actometers (Ugo Basile, Italy) connected to a counter for the recording of light-beam interruptions. Mice were individually placed in plastic cages for 30 min habituation period, and then the number of light-beam crossings was counted for a 30-min session. The cages were cleaned up with 70 % ethanol after each mouse.

For data set [6], the system named is V. harveyi BB7. In words: Vibrio harveyi mutagenicity assay, BB7 strain. To be noted: 40 ng/ml; for Mutagenicity BB7 M.I. (mutagenic index): positive assay when M.I. ≥ 2. Here is the method: (§3) Two V. harveyi strains were used in the experiments: wild-type BB7 and genetically modified BB7XM (the UV-hypersensitive strain bearing plasmid pAB91273), which were described previously by Czyż et al. ([2000]).
(§4) Mutagenicity assay was performed as described previously (Czyż et al. [2000]). All experiments were carried out in triplicate and the results were expressed as mutagenic index (M.I. = the number of revertant colonies induced in the tested sample/the number of spontaneous revertants in the negative control) (Gulluce et al. [2010]).

Data set [7] relates to V. harveyi BB7XM. The experiment in a line: Vibrio harveyi mutagenicity assay, BB7XM strain. Particulars: 40 ng/ml; for Mutagenicity BB7XM M.I. (mutagenic index): positive assay when M.I. ≥ 2. The method, then: as §3, §4
Data set [8] has as its system V. harveyi BB7. The experiment in a line: Vibrio harveyi antimutagenicity assay (vs NQNO), BB7 strain. It counts as cell-based. To be noted: for inhibition of NQNO-induced mutagenicity in BB7 strain (in words): NQNO 40 ng/ml; for Antimutagenicity BB7 number of revertants Mean ± SD: test compound plus NQNO 40 ng/ml (NQNO line: mutagen only); for Antimutagenicity BB7 Inhib. (%) of mutagenicity: test compound plus NQNO 40 ng/ml, 25–40 % moderate, 40 % or more strong. The method, then: as §3
(§5) Antimutagenicity assay was performed according to previously described procedures (Czyż et al. [2002]; Pękala et al. [2013]). […] This was calculated as follows: Inhibition (%) = 100 − [(R1/R2) × 100], where R1 is the number of revertants per plate induced by test compound plus mutagen and R2 is the number of revertants in the plate containing only the mutagen (Słoczyńska et al. [2010]). No antimutagenic effect was considered when the inhibition was less than 25 %; a moderate effect for an inhibition value between 25 and 40 % and a strong antimutagenicity were recorded for inhibition higher than 40 % (Gulluce et al. [2010]).

The subject of data set [9] is V. harveyi BB7XM. In words: Vibrio harveyi antimutagenicity assay (vs NQNO), BB7XM strain. In kind it is cell-based. To be noted: for Antimutagenicity BB7XM number of revertants Mean ± SD: test compound plus NQNO 40 ng/ml (NQNO line: mutagen only); for Antimutagenicity BB7XM Inhib. (%) of mutagenicity: test compound plus NQNO 40 ng/ml, 25–40 % moderate, 40 % or more strong. Here is the method:
as §3, §5

Data set [10] concerns L-type calcium channel (dihydropyridine site). In words: L-type Ca channel (dihydropyridine site) [3H]nitrendipine binding assay. To be noted: rat cerebral cortex.
Data set [11] relates to mice. To be noted: ref Rybka et al. [2014]; cited from earlier work.
Data set [12] has as its system mice. Also on record: method as in Rybka et al. [2014]. To be noted: ref Rybka et al. [2014], cited from earlier work; for motor coordination in the rotarod test (in words): up to a dose of 500 mg/kg.
The test system of data set [13] is L-type calcium channel (dihydropyridine site). Also on record: method as in Kamiński et al. [2015b]. To be noted: 100 μM; [3H]nitrendipine; rat cerebral cortex; ref Kamiński et al. [2015b]; cited from earlier work.

In the case of `CC1CC(=O)N(CN2CCN(c3ccc(Cl)c(Cl)c3)CC2)C1=O` (centres unmarked) [Compound 12, N-[{4-(3,4-dichlorophenyl)-piperazin-1-yl}-methyl]-3-methylpyrrolidine-2,5-dione], in the data set with mice [1] (dose 10 mg/kg i.p.), the “increase of electroconvulsive threshold (ECT) vs vehicle” value (from here on “increase of electroconvulsive threshold”) turned out to be 51% and the “CS50 (mA) (CI)” value is given as 7.94 (6.57–9.57)*** mA. In the data set on mice [1] (dose 30 mg/kg i.p.), the “increase of electroconvulsive threshold” value amounted to 118% and the “CS50 (mA) (CI)” value is 14.27 (8.21–24.80)** mA. Besides, in the data set on mice [2] (dose 100 mg/kg i.p.), the “Latency to status epilepticus (s) ± SEM” value is listed as 468.8 ± 39.60 s; the “Anticonvulsant effect (%) (prolongation of latency time to seizures vs vehicle)” value was 37% and 36.8%. Besides, the “prolongation of latency time to pain reaction vs vehicle” value in the data set on mice [3] was found to be 44%. Moreover, the “latency time to pain reaction” value with mice [3] (mean ± SEM, vehicle 27.51 ± 1.36 s, cutoff 60 s) amounted to 39.73 ± 3.20 s. For the same molecule, the “reduction of the duration of the licking response, first (neurogenic) phase” value with mice [4] (0–5 min after 5 % formalin) is 39%. Moreover, the “antinociceptive effect (reduction of licking response), second (late) phase” value with mice [4] worked out at 74%. Moreover, the “influence on locomotor activity (number of crossings, in words)” value in the data set on mice [5] is “did not significantly influence on locomotor activity”. Further, in the data set with V. harveyi BB7 [6], the “Mutagenicity BB7 number of revertants Mean ± SD” value worked out at 25 ± 4 and the “Mutagenicity BB7 M.I. (mutagenic index)” value was 1.5. For the same molecule, in the data set with V. harveyi BB7XM [7], the “Mutagenicity BB7XM number of revertants Mean ± SD” value stood at 14 ± 6 and the “Mutagenicity BB7XM M.I. (mutagenic index)” value is given as 1.2. Further, in the data set with V. harveyi BB7 [8], the “inhibition of NQNO-induced mutagenicity in BB7 strain (in words)” value was “moderate inhibitors”, the “Antimutagenicity BB7 number of revertants Mean ± SD” value is recorded as 28 ± 4 and the “Antimutagenicity BB7 Inhib. (%) of mutagenicity” value is “(26) %”. Besides, in the data set with V. harveyi BB7XM [9], the “Antimutagenicity BB7XM number of revertants Mean ± SD” value was 23 ± 5 and the “Antimutagenicity BB7XM Inhib. (%) of mutagenicity” value is given as “(5) %”. Moreover, the “% inhibition of control specific binding” value in data set [10] (10 μM) is on record as 20.2%. Further, the “% inhibition of control specific binding” value in [10] (100 μM) worked out at 59.4%. Further, the “ED50 in the s.c.PTZ test” value with mice [11] is 134.0 mg/kg. For the same molecule, in the data set on mice [12] (mice), the “TD50 in rotarod test” value is over 500 mg/kg. Further, the “motor coordination in the rotarod test (in words)” value in the data set with mice [12] is given as “did not impair the motor coordination”.
As for `O=C1CCC(=O)N1CN1CCN(c2ccc(Cl)c(Cl)c2)CC1` [Compound 23, N-[{4-(3,4-dichlorophenyl)-piperazin-1-yl}-methyl]-pyrrolidine-2,5-dione], in the data set on mice [1] (dose 10 mg/kg i.p.), the “increase of electroconvulsive threshold” value is 27% and the “CS50 (mA) (CI)” value was 8.42 (7.55–9.39)** mA. In the data set with mice [1] (dose 30 mg/kg i.p.), the “increase of electroconvulsive threshold” value is listed as 61% and the “CS50 (mA) (CI)” value was 10.53 (8.06–13.77)**** mA. Besides, the “Latency to status epilepticus (s) ± SEM” value with mice [2] (dose 30 mg/kg i.p.) was determined as 465.8 ± 37.61 s. Further, in the data set on mice [2] (dose 100 mg/kg i.p.), the “Latency to status epilepticus (s) ± SEM” value was determined as 669.4 ± 73.04 s; the “Anticonvulsant effect (%) (prolongation of latency time to seizures vs vehicle)” value was 95% and 95.4%. In addition, the “antinociceptive activity in the hot plate test (in words)” value with mice [3] is reported as “did not show activity”. Further, in the data set with mice [4] (0–5 min after 5 % formalin), the “effect on nocifensive response, first (neurogenic) phase (in words)” value is “did not attenuate the nocifensive response in this phase in a statistically significant manner”. Also, the “antinociceptive effect (reduction of licking response), second (late) phase” value in the data set on mice [4] was determined as 89%. In the data set with mice [5], the “influence on locomotor activity (number of crossings, in words)” value is “significantly reduced the number of crossings”. In the data set with V. harveyi BB7 [6], the “Mutagenicity BB7 number of revertants Mean ± SD” value was determined as 19 ± 2 and the “Mutagenicity BB7 M.I. (mutagenic index)” value was determined as 1.2. Moreover, in the data set with V. harveyi BB7XM [7], the “Mutagenicity BB7XM number of revertants Mean ± SD” value is recorded as 9 ± 3 and the “Mutagenicity BB7XM M.I. (mutagenic index)” value is on record as 0.7. Further, in the data set on V. harveyi BB7 [8], the “inhibition of NQNO-induced mutagenicity in BB7 strain (in words)” value is recorded as “weakly suppressed”, the “Antimutagenicity BB7 number of revertants Mean ± SD” value turned out to be 32 ± 3 and the “Antimutagenicity BB7 Inhib. (%) of mutagenicity” value is on record as “(15) %”. Further, in the data set on V. harveyi BB7XM [9], the “Antimutagenicity BB7XM number of revertants Mean ± SD” value was 24 ± 2 and the “Antimutagenicity BB7XM Inhib. (%) of mutagenicity” value is “(1) %”. Also, the “% inhibition of control specific binding” value in data set [10] (10 μM) was 12.3%. For the same molecule, in data set [10] (100 μM), the “% inhibition of control specific binding” value came to 65.9%. The “ED50 in the s.c.PTZ test” value in the data set on mice [11] is 128.8 mg/kg. Also, the “motor coordination in the rotarod test (in words)” value with mice [12] is on record as “did not impair the motor coordination”.
Take `CC1(C)O[C@@H]2[C@@H](CO[C@@]3(COS(N)(=O)=O)OC(C)(C)O[C@@H]23)O1` [Topiramate]: the “% inhibition of control specific binding” value in [13] is 7.9%.
